Reference: patent US8841456B2, “1,5-naphthyridine derivative or salt thereof” (FUJIFILM Corporation, priority 2011, dated 2014)
Where two headings read alike, the source gives them in different places.

Legend:
[1] = target: T1, human PI3Kα protein (Homo sapiens, UniProt P42336); experiment: PI3Kα enzyme assay (ADP-Glo kinase assay); assay type: biochemical; details: 3 nM PI3Kα, 50 μM PIP2, 100 μM ATP
T1 construct: purchased Carna Biosciences, Inc; host or cells: Baculovirus expression system
Procedure, shortened: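 Baculovirus-expressed biotinylated human PI3Kα (3 nM) preincubated 15 min with compound in Tris pH 7.5, MgCl2, BSA, then reacted 60 min at 25 °C with 50 μM PIP2 and 100 μM ATP. ADP quantified by ADP-Glo luminescence; IC50 calculated.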

[2] = target: T2, glutathione S-transferase (GST)-fusion human ERK2 protein (Homo sapiens, UniProt P28482); experiment: ERK2 enzyme assay (LabChip mobility shift); assay type: biochemical; details: 2 nM ERK2, 4.25 μM FL-Peptide 8, 43 μM ATP
T2 construct: purchased Carna Biosciences, Inc; host or cells: E. coli expression system
T2 sequence (P28482 whole entry, the tested form may be a part): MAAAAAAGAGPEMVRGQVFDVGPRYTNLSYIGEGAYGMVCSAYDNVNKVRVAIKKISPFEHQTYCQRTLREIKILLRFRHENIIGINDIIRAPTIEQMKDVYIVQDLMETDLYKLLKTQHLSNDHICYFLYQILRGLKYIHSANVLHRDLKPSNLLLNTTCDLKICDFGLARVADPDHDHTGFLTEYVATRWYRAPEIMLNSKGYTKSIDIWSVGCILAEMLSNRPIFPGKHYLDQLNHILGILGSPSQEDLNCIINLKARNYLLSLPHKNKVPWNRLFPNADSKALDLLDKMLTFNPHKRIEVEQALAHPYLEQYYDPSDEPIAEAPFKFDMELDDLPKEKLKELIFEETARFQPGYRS
Procedure, shortened: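 GST-tagged human ERK2 from E. coli, at 2 nM, was preincubated 15 min at room temperature with compound in Hepes pH 7.5 with MgCl2, DTT and Brij35. The reaction ran 120 min at 25 °C with 4.25 μM FL-Peptide 8 and 43 μM ATP (final). Phosphopeptide fraction was measured by mobility-shift separation to give IC50.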

[3] = tested on: Human colon cancer cell line (HCT116); experiment: Cell growth inhibition test (Celltiter-Glo); assay type: cell-based; details: HCT-116, IC50 class, 72 hours culture, viable cells by Celltiter-Glo
Method: Evaluation of the cell proliferation inhibitory activity of the compound of the present invention was carried out according to the method below. Human colon cancer cell line (HCT116) McCoy's 5A (INVITROGEN)+Final Concentration 10% FBS+GLUTA Max (INVITROGEN) Celltiter-Glo™ Luminescent Cell Viability Assay (Promega Corporation) HCT116 was seeded on a 96-well culture microplate (Corning Inc.) at 750/well (90 uL/well), and a compound for evaluation (final concentration: 25.00 μM to 0.01 μM, 3-fold common ratio 8 points) was added thereto. After culturing in a CO2 incubator (37° C.) for 72 hours, the number of viable cells were calculated by Celltiter-Glo. For the measurement of luminescence intensity, EnVision (PerkinElmer, Inc.) was used. The inhibitory activity of the compound was calculated using IC50 (50% inhibitory concentration). The IC50 was calculated using XLfit (IDBS). The results of IC50 were evaluated according to the following evaluation criteria.

[4] = IC50 class, read-out: PI3Kα Inhibitory Activity
[5] = IC50 class, read-out: ERK2 Inhibitory Activity

T1 sequence (P42336 whole entry): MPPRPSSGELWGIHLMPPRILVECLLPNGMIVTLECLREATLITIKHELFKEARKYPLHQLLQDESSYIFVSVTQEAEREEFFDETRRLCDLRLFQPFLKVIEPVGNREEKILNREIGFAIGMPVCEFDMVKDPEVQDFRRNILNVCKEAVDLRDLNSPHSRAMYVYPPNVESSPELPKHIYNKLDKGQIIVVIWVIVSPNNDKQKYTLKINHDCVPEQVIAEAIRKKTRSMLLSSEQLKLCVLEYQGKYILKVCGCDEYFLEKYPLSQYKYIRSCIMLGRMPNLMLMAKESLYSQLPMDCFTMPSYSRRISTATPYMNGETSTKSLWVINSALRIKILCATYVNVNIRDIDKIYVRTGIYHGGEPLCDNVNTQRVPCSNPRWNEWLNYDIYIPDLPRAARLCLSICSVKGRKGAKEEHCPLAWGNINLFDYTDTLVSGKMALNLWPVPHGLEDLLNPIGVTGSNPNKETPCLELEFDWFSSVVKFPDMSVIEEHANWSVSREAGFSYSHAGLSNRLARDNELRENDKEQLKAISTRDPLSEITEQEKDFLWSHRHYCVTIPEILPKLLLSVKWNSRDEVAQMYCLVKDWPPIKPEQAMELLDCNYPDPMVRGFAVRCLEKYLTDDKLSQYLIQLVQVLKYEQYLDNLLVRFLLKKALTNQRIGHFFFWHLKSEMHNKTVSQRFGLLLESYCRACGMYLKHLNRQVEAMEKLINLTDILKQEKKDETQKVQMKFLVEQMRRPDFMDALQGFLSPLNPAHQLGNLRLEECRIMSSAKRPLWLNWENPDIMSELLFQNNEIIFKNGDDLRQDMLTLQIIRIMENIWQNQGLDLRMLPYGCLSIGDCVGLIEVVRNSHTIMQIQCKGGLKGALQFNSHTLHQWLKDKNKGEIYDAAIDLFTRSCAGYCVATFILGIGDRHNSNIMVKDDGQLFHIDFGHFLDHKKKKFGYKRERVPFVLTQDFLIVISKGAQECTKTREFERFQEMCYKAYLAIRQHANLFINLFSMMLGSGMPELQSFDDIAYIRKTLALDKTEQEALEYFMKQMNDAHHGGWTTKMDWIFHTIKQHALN
T1 sequence (P27986 whole entry partner): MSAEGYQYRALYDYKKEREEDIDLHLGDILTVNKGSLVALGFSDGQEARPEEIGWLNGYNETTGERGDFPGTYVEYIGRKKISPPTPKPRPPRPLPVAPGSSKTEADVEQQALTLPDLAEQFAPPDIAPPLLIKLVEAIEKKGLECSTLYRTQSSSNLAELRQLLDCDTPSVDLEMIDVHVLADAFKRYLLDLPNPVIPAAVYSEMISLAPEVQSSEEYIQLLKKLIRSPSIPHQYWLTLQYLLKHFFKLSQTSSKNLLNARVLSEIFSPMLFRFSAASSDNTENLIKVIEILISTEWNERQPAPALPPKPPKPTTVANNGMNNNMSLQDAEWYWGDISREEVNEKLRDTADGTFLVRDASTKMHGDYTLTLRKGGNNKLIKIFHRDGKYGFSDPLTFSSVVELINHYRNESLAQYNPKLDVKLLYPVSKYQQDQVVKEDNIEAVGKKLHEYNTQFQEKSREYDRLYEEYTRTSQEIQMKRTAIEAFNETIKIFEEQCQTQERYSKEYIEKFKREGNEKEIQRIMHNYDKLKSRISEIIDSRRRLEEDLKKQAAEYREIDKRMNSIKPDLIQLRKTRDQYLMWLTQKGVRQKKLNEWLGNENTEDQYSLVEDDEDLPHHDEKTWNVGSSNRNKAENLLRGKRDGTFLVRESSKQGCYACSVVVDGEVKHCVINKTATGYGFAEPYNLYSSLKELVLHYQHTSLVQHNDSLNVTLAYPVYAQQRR

Row | SMILES | IC50 [1, 4] | IC50 [2, 5] | IC50 [3] | IC50 ([1]; read-out: PI3Kα, IC50) | IC50 ([2]; read-out: ERK2, IC50)
1 | O=C(Nc1ccc2ncc(N3CCN(c4ccncc4)CC3)cc2n1)NC1CCCC1 [Compound 0158] | < 100 nM | 100 to 1000 nM | < 1000 nM | – | –
2 | O=C(Nc1ccc2ncc(N3CCN(c4cccnc4)CC3)cc2n1)NC1CCCC1 [Compound 0157] | < 100 nM | 100 to 1000 nM | < 1000 nM | – | –
3 | CN1CCC(n2cc(-c3cnc4ccc(NC(=O)NC5(C)CCCC5)nc4c3)cn2)CC1 [Compound 0255] | < 100 nM | 100 to 1000 nM | < 1000 nM | – | –
4 | CCCC(C)(C)NC(=O)Nc1ccc2ncc(-c3cnn(CCCN4CCOCC4)c3)cc2n1 [Compound 0182] | < 100 nM | < 100 nM | < 1000 nM | – | –
5 | CN(C)CC(C)(C)Cn1cc(-c2cnc3ccc(NC(=O)NC4CCCC4)nc3c2)cn1 [Compound 0243] | < 100 nM | 100 to 1000 nM | < 1000 nM | – | –
6 | O=C(Nc1ccc2ncc(-c3cccc(CO)c3)cc2n1)NC1CCCC1 [Compound 0041] | 100 to 1000 nM | < 100 nM | 1000 to 10000 nM | – | –
7 | O=C(Nc1ccc2ncc(N3CCOC3=O)cc2n1)NC1CCCC1 [Compound 0046] | < 100 nM | 100 to 1000 nM | 1000 to 10000 nM | – | –
8 | CC(=O)N1CCN(c2cnc3ccc(NC(=O)NC4CCCC4)nc3c2)CC1 [Compound 0148] | < 100 nM | 100 to 1000 nM | 1000 to 10000 nM | – | –
9 | O=C(Nc1ccc2ncc(N3CCN(c4ccccn4)CC3)cc2n1)NC1CCCC1 [Compound 0154] | 100 to 1000 nM | 100 to 1000 nM | < 1000 nM | – | –
10 | Cn1cc(-c2cc3nc(NC(=O)NC4CCCC4)ccc3nc2Cl)cn1 [Compound 0225] | > 10000 nM | > 10000 nM | – | – | –
11 | O=C(NCCCCc1ccc(Cl)cc1)Nc1ccc2ncc(-c3cn[nH]c3)cc2n1 [Compound 0167] | 100 to 1000 nM | < 100 nM | – | – | –
12 | O=C(NCCOCc1ccccc1)Nc1ccc2ncc(-c3cn[nH]c3)cc2n1 [Compound 0107] | 100 to 1000 nM | < 100 nM | – | – | –
13 | O=C(NCC1CCC(F)(F)CC1)Nc1ccc2ncc(-c3cnn(CCCN4CCOCC4)c3)cc2n1 [Compound 0180] | < 100 nM | < 100 nM | – | – | –
14 | O=C(NCC1CCCCO1)Nc1ccc2ncc(-c3cn[nH]c3)cc2n1 (stereo not drawn) [Compound 0189] | 100 to 1000 nM | < 100 nM | – | – | –
15 | O=C(NCCCCc1ccccc1F)Nc1ccc2ncc(-c3cn[nH]c3)cc2n1 [Compound 0171] | < 100 nM | < 100 nM | – | – | –
16 | O=C(Nc1ccc2ncc(-c3ccc4[nH]ncc4c3)cc2n1)NC1CCCC1 [Compound 0122] | < 100 nM | < 100 nM | – | – | –
17 | O=C(Nc1ccc2ncc(-c3cn[nH]c3)cc2n1)NC1CCCc2ccccc21 (stereo not drawn) [Compound 0065] | 100 to 1000 nM | < 100 nM | – | – | –
18 | O=C(NCCCOc1ccccc1)Nc1ccc2ncc(-c3cn[nH]c3)cc2n1 [Compound 0104] | 100 to 1000 nM | < 100 nM | – | – | –
19 | CC(=O)OCCCCn1cc(-c2cnc3ccc(NC(=O)NC4CCCC4)nc3c2)cn1 [Compound 0249] | < 100 nM | < 100 nM | – | – | –

Row | SMILES | IC50 [1, 4] | IC50 [2, 5] | IC50 [3] | IC50 ([1]; read-out: PI3Kα, IC50) | IC50 ([2]; read-out: ERK2, IC50)
20 | CN(C)CCCn1cc(-c2cnc3ccc(NC(=S)NC4CCCC4)nc3c2)cn1 [Compound 0221] | < 100 nM | < 100 nM | – | – | –
21 | O=C(Nc1ccc2ncc(-c3cnn(C4CCNCC4)c3)cc2n1)NC1CCCC1 [Compound 0214] | < 100 nM | 100 to 1000 nM | – | – | –
22 | O=C(Nc1ccc2ncc(N3CCNCC3)cc2n1)NC1CCCC1 [Compound 0013] | 100 to 1000 nM | 100 to 1000 nM | – | – | –
23 | CCCCCCNC(=O)Nc1ccc2ncc(-c3cn[nH]c3)cc2n1 [Compound 0057] | < 100 nM | < 100 nM | – | – | –
24 | O=C(NCCC(F)(F)F)Nc1ccc2ncc(-c3cn[nH]c3)cc2n1 [Compound 0115] | < 100 nM | < 100 nM | – | – | –
25 | O=C(NCc1cccnc1)Nc1ccc2ncc(-c3cn[nH]c3)cc2n1 [Compound 0102] | 1000 to 10000 nM | < 100 nM | – | – | –
26 | O=C(Nc1ccc2ncc(N3CCOCC3)cc2n1)NC1CCCC1 [Compound 0008] | < 100 nM | < 100 nM | – | – | –
27 | Cn1cc(-c2cnc3ccc(NC(=O)NC4CCCC4)nc3c2)c(CO)n1 [Compound 0216] | < 100 nM | < 100 nM | – | – | –
28 | O=C(Nc1ccc2ncc(-c3cn[nH]c3)cc2n1)NC1Cc2ccccc2C1 [Compound 0086] | < 100 nM | < 100 nM | – | – | –
29 | O=C(Nc1ccc2ncc(-c3cnn(CCCCN4C(=O)c5ccccc5C4=O)c3)cc2n1)NC1CCCC1 [Compound 0206] | < 100 nM | 100 to 1000 nM | – | – | –
30 | O=C(Nc1ccc2ncc(-c3cn[nH]c3)cc2n1)NC1CCC1 [Compound 0084] | < 100 nM | < 100 nM | – | – | –
31 | COCCN(C)CCn1cc(-c2cnc3ccc(NC(=O)NC4CCCC4)nc3c2)cn1 [Compound 0037] | < 100 nM | < 100 nM | – | – | –
32 | O=C(Nc1ccc2ncc(-c3cn[nH]c3)cc2n1)NC1CC1 [Compound 0067] | 100 to 1000 nM | < 100 nM | – | – | –
33 | O=C(Nc1ccc2ncc(-c3ccccn3)cc2n1)NC1CCCC1 [Compound 0136] | < 100 nM | < 100 nM | 1000 to 10000 nM | – | –
34 | CC1(NC(=O)Nc2ccc3ncc(-c4cnn(CCCN5CCNCC5)c4)cc3n2)CCCC1 [Compound 0256] | < 100 nM | 100 to 1000 nM | – | – | –
35 | CN1CCN(c2cnc3ccc(NC(=O)NC4CCCC4)nc3c2)CC1=O [Compound 0155] | < 100 nM | 100 to 1000 nM | – | – | –
36 | O=C(NC[C@@H]1CCCO1)Nc1ccc2ncc(-c3cn[nH]c3)cc2n1 [Compound 0193] | 100 to 1000 nM | < 100 nM | – | – | –
37 | COc1cc(Nc2cnc3ccc(NC(=O)NC4CCCC4)nc3c2)cc(OC)c1OC [Compound 0009] | < 100 nM | – | – | < 3 nM | 1220 nM
38 | O=C(Nc1ccc2ncc(-c3cnn(CCCN4CC[C@@H](F)C4)c3)cc2n1)NC1CCCC1 [Compound 0248] | < 100 nM | < 100 nM | – | – | –
